Source: patent US20170333391A1, “METHOD FOR DELAYING THE ONSET OF PULMONARY FIBROSIS OR TREATING PULMONARY FIBROSIS” (EVERFRONT BIOTECH INC., priority 2016, published 2017)

Experiments:
[1] = system: C57B/L6 mice injected with Bleomycin sulfate (inducer of pulmonary fibrosis); assay: Pulmonary function by unrestrained whole body plethysmography in Bleomycin sulfate mice; type: in vivo; conditions: compared to oil group; for accumulated volume (AV): p<0.01; for expiratory time (Te) / relaxation time (RT): p<0.05
Experimental: 24 C57B/L6 mice (age: four weeks) were separated into four groups (6 mice in each group). Each group was respectively treated under the following conditions to conduct follow-up experiments: • (1) Control group (mice without pulmonary fibrosis; i.e., normal mice): 50 μl of PBS was administrated to each mouse by intratracheal injection, and then the mice were fed for 30 days; • (2) Oil group: 0.6 U/50 μl of Bleomycin sulfate (dissolved in PBS) was administrated to each mouse by intratracheal injection, and then 100 μl of olive oil was orally administrated to each mouse every day for 30 days; • (3) Low-dose group: 0.6 U/50 μl of Bleomycin sulfate (dissolved in PBS) was administrated to each mouse by intratracheal injection, and then compound (1) (10 mg/kg-body weight, prepared with olive oil to provide a final volume of 100 μl) was orally administrated to each mouse every day for 30 days; and • (4) High-dose group: 0.6 U/50 μl of Bleomycin sulfate (dissolved in PBS) was administrated to each mouse by intratracheal injection, and then compound (1) (50 mg/kg-body weight, prepared with olive oil to provide a final volume of 100 μl) was orally administrated to each mouse every day for 30 days.
In this experiment, the pulmonary functions of the mice from each group of Example 5 were evaluated with Unrestrained Whole Body Plethysmography (WBP). The inspiratory and expiratory flow rates of mice were calculated by measuring changes in the air inside and outside of a specific chamber, and respiratory parameters can be obtained therefrom. The respiratory parameters comprise the peak inspiratory flow (PIF) (i.e., the maximal volume being inspired in a period of time), peak expiratory flow (PEF) (i.e., the maximal volume being expired in a period of time), inspiratory time (Ti) (i.e., the average time of inspiration in a period of time), expiratory time (Te) (i.e., the average time of expiration in a period of time), respiratory rate (RR) (i.e., the numbers of breath per minute), accumulated volume (AV) (i.e., the average volume of air being breathed per minute), tidal volume (TV) (i.e., the average volume of air being expired per time), relaxation time (RT) (i.e., the average time needed for raising the pressure of air hatch to 40% of the maximal value), etc.

TGF-β protein = TGF-β protein expression in TGF-β1-induced NHLF, western blotting (2-2); type: cell-based, human; conditions: TGF-β1-only control group = 1
Experimental: (§1) Normal Human lung fibroblasts (NHLF) were seeded into 6 cm culture dishes at a density of 2×10^5 cells/dish, comprising a control group and six experimental groups (7 dishes in total). The cells were cultured until the next day, and then the mediums were removed. Each group was respectively treated under the following conditions to conduct follow-up experiments: • (1) Positive control group: cells were cultured in a FGM-2 medium containing 1% serum and TGF-β1 (5 ng/ml) for 36 hours; • (2) Group I: cells were firstly cultured in a FGM-2 medium containing 1% serum and TGF-β1 (5 ng/ml) for 12 hours, and then compound (1) was added into the medium to provide a final concentration of 15 μg/ml; thereafter, the cells were cultured for another 24 hours; • (3) Group II: cells were firstly cultured in a FGM-2 medium containing 1% serum and TGF-β1 (5 ng/ml) for 12 hours, and then compound (1) was added into the medium to provide a final concentration of 25 μg/ml; thereafter, the cells were cultured for another 24 hours; • (4) Group III: cells were firstly cultured in a FGM-2 medium containing 1% serum and TGF-β1 (5 ng/ml) for 12 hours, and then compound (1) was added into the medium to provide a final concentration of 35 μg/ml; thereafter, the cells were cultured for another 24 hours; • (5) Group IV: cells were firstly cultured in a FGM-2 medium containing 1% serum and TGF-β1 (5 ng/ml) for 12 hours, and then the Pirfenidone was added into the medium to provide a final concentration of 100 μg/ml; thereafter, the cells were cultured for another 24 hours; • (6) Group V: cells were firstly cultured in a FGM-2 medium containing 1% serum and TGF-β1 (5 ng/ml) for 12 hours, and then the Pirfenidone was added into the medium to provide a final concentration of 250 μg/ml; thereafter, the cells were cultured for another 24 hours; and • (7) Group VI: cells were firstly cultured in a FGM-2 medium containing 1% serum and TGF-β1 (5 ng/ml) for 12 hours, and then the Pirfenidone was added into the medium to provide a final concentration of 500 μg/ml; thereafter, the cells were cultured for another 24 hours.
(§2) Thereafter, the proteins in the cells of each group were extracted, and the expressions of type I collagen, BMP-7 protein and TGF-β protein in the NHLF cells of each group were measured with western blotting. The results of the control group served as the basis for calculating the relative expression levels of the other groups.

type I collagen = assay: Type I collagen expression in TGF-β1-induced NHLF, western blotting (2-2); type: cell-based, human; conditions: TGF-β1-only control group = 1
Experimental: as §1, §2

IL-β = IL-β mRNA in mouse pulmonary tissue, RT-PCR; type: in vivo, mice; conditions: Bleomycin sulfate, normal control = 1, oil group = 2.34
Description: (§3) 24 C57B/L6 mice (age: four weeks) were separated into four groups (6 mice in each group). […]
(§4) Then, for another portion of ground samples of each group, the total RNAs were extracted using an RNeasy Mini Kit. The QuantiTect Reverse Transcription Kit was used to conduct reverse transcription on the total RNA to obtain the cDNA. […]

IL-6 = IL-6 mRNA in mouse pulmonary tissue, RT-PCR; type: in vivo, mice; conditions: Bleomycin sulfate, normal control = 1, oil group = 3.26
Description: as §3, §4

[2] = High-dose group, compound (1) 50 mg/kg orally daily 30 days
[3] = Low-dose group, compound (1) 10 mg/kg orally daily 30 days
[4] = Group I: TGF-β1 5 ng/ml 12 h, then compound (1) 15 μg/ml 24 h
[5] = Group II: TGF-β1 5 ng/ml 12 h, then compound (1) 25 μg/ml 24 h
[6] = Group III: TGF-β1 5 ng/ml 12 h, then compound (1) 35 μg/ml 24 h
[7] = High-dose group: mRNA in pulmonary tissue, compound (1) 50 mg/kg-body weight orally every day for 30 days
[8] = Low-dose group: mRNA in pulmonary tissue, compound (1) 10 mg/kg-body weight orally every day for 30 days

SMILES: CCCC=C1OC(=O)c2ccccc21 [compound (1)]
- other respiratory parameters [1, 2]: closer to the control group
- accumulated volume (AV) [1, 2]: significantly increased
- expiratory time (Te) [1, 2]: significantly decreased
- relaxation time (RT) [1, 2]: significantly decreased
- other respiratory parameters [1, 3]: closer to the control group
- accumulated volume (AV) [1, 3]: significantly increased
- expiratory time (Te) [1, 3]: significantly decreased
- relaxation time (RT) [1, 3]: significantly decreased
- Relative expression level (fold) TGF-β protein (TGF-β protein; [4]): 0.81 fold
- Relative expression level (fold) TGF-β protein (TGF-β protein; [5]): 0.77 fold
- Relative expression level (fold) TGF-β protein (TGF-β protein; [6]): 0.58 fold
- Relative expression level (fold) Type I collagen (type I collagen; [4]): 0.79 fold
- Relative expression level (fold) Type I collagen (type I collagen; [5]): 0.30 fold
- Relative expression level (fold) Type I collagen (type I collagen; [6]): 0.51 fold
- Relative expression level (fold) IL-β (IL-β; [7]): 0.52 fold
- Relative expression level (fold) IL-β (IL-β; [8]): 1.02 fold
- Relative expression level (fold) IL-6 (IL-6; [7]): 0.53 fold
- Relative expression level (fold) IL-6 (IL-6; [8]): 1.36 fold
